Columns and labels:
Type in all cases: cell-based, rat
NBT-II cells = assay: Proliferation assay, whole cell number by electronic cell counter; parameters: reduction in whole cell number / reduction in cell number in the presence of FGF7: concentration or dose not given beside the values; details: for percent reduction in whole cell number ± standard deviation / proliferative effect of ligand in the absence of GAGs / reduction in whole cell number: no GAG; for proliferative effect of ligand in the absence of GAGs: ligand 10 ng/ml; for reduction in whole cell number: ligand alone; for reduction in whole cell number / reduction in cell number in the presence of FGF7: compared to untreated cells; for reduction in cell number in the presence of FGF7: ligand plus FGF7, no GAG
Protocol: NBT-II cells were grown until confluence in 75 cm^2 flasks. Each flask was washed with 20 ml PBS and treated with 3 ml trypsin-EDTA at 37° C. for ˜15 minutes until cells completely detached. Cells were centrifuged for 3 minutes at 195×g. The supernatant was aspirated, and the cells were resuspended in 10 ml media. Cell density was measured using an electronic cell counter, and the suspension was diluted to 50,000 cells/ml. The suspension was plated 1 ml/well into 24-well tissue culture plates. After a 24 hour incubation in a 5% CO2, 37° C. humidified incubator, the media was aspirated, the wells were washed with serum free media, and the cells were supplemented with media containing 0.1% FBS and incubated for 24 hours. Cells were sequentially treated with antibodies, GAGs and growth factors as appropriate. Sodium chlorate was added at 50 mM [30]. Antibodies to VEGFR2 or VEGFR3 were added to yield a final dilution of 1:100. All GAGs were initially added over a range of concentrations from 1 ng/ml to 100 μg/ml. Heparin, UDS and DS DT were subsequently added at 1 μg/ml unless otherwise noted. FGF1, FGF2, FGF7 and VEGF were added at 10 ng/ml unless otherwise noted. Cells were then incubated for 72 hours. Wells were then washed twice with PBS and treated with 0.5 ml trypsin-EDTA/well and incubated for 10 minutes at 37° C. Whole cell number was determined using an electronic cell counter.

VEGF-C = assay: Whole cell ELISA for VEGF-C
Protocol: (§1) ELISA was performed using whole cells to quantify relative levels of kinase activity. NBT-II cells were grown until confluence in 75 cm^2 flasks. Each flask was washed with 20 ml PBS and treated with 3 ml trypsin-EDTA at 37° C. for 3-5 minutes, until cells detached. Cells were centrifuged for 3 minutes at 195×g. The supernatant was aspirated, and the cells were resuspended in 10 ml media. The cell density was measured using an electronic cell counter, and the suspension was diluted to 50,000 cells/ml. 100 mm dishes were supplemented with 10 ml cell suspension per dish. After a 24 hour incubation, the media was aspirated, the dishes washed with serum free media, and the cells supplemented with media containing 0.1% FBS. After a 24 hour incubation, dishes were treated with PBS, 10 μg/ml heparin or 10 μg/ml DS DT. […] Cells were incubated for 30 minutes (for Erk1, Erk2, phosphor-Erk1/2, Mek1, Mek2, phospho-Mek1/2, Akt1/2 and phospho-Akt1/2/3) or 24 hours (for VEGF, VEGF-C and VEGF-D). Media were aspirated and cells were homogenized per manufacture instructions. Total protein concentration was determined by Bradford assay. […] The reaction was quenched with 3 M sulfuric acid, and the plates were analyzed using a UV plate reader at 450 nm. Data were quantified by comparing to a standardized curve with varying concentrations of protein from untreated cells.

VEGF-D = assay: Whole cell ELISA for VEGF-D; details: FGF2 in the presence of PBS, heparin or DS DT, 24 hours
Protocol: as §1

VEGFR3 = assay: Whole cell ELISA for VEGFR3; details: addition of ligand, 24 hours
Protocol: (§2) ELISA was performed using whole cells to quantify relative levels of kinase activity. NBT-II cells were grown until confluence in 75 cm^2 flasks. Each flask was washed with 20 ml PBS and treated with 3 ml trypsin-EDTA at 37° C. for 3-5 minutes, until cells detached. Cells were centrifuged for 3 minutes at 195×g. The supernatant was aspirated, and the cells were resuspended in 10 ml media. The cell density was measured using an electronic cell counter, and the suspension was diluted to 50,000 cells/ml. 100 mm dishes were supplemented with 10 ml cell suspension per dish. After a 24 hour incubation, the media was aspirated, the dishes washed with serum free media, and the cells supplemented with media containing 0.1% FBS. After a 24 hour incubation, dishes were treated with PBS, 10 μg/ml heparin or 10 μg/ml DS DT. Subsequently, cells were treated with 10 ng/ml FGF7, 10 ng/ml VEGF or both. Cells were incubated for 30 minutes (for Erk1, Erk2, phosphor-Erk1/2, Mek1, Mek2, phospho-Mek1/2, Akt1/2 and phospho-Akt1/2/3) or 24 hours (for VEGF, VEGF-C and VEGF-D). […] Total protein concentration was determined by Bradford assay. […] The reaction was quenched with 3 M sulfuric acid, and the plates were analyzed using a UV plate reader at 450 nm. Data were quantified by comparing to a standardized curve with varying concentrations of protein from untreated cells.

[1] = tested on: phospho-Akt1/2/3 (Thr 308); assay: Whole cell ELISA for phospho-Akt1/2/3 (Thr 308); details: ligand in the presence of PBS (no GAG)
Protocol: as §2

[2] = FGF7: ligand (10 ng/ml) or PBS plus FGF7 at 10 ng/ml

Molecule	percent reduction in whole cell number ± standard deviation (NBT-II cells; [2]) [%]	percent reduction in whole cell number ± standard deviation (NBT-II cells; PBS: ligand at 10 ng/ml alone) [%]	proliferative effect of ligand in the absence of GAGs (NBT-II cells)	reduction in whole cell number (NBT-II cells) [%]	reduction in cell number in the presence of FGF7 (NBT-II cells) [%]	VEGFR3 production (VEGFR3)	further results
FGF1: Recombinant FGF1, gift from Amgen	18.0 ± 2.6	5.4 ± 8.3	did not induce significant proliferative effects				
FGF2: Recombinant human FGF2, gift from Scios	30.4 ± 8.7	18.3 ± 5.0	reduced whole cell number				production of VEGF-C (VEGF-C; FGF2 in the presence of PBS, heparin or DS DT, 24 hours): did not alter; production of VEGF-D (VEGF-D): did not alter
VEGF	30.1 ± 7.0	19.8 ± 4.5	reduced whole cell number	19.8±4.5	30.1±7.0	not	VEGF-C levels (VEGF-C; ligand over 24 hours, regardless of GAG used): increased
VEGF-D: vascular endothelial growth factor D, ligand of VEGFR2 and VEGFR3 (protein, UniProt O43915 89-205, looked up) Vascular endothelial growth …: FAATFYDIETLKVIDEEWQRTQCSPRETCVEVASELGKSTNTFFKPPCVNVFRCGGCCNEESLICMNTSTSYISKQLFEISVPLTSVPELVPVKVANHTGCKCLPTAPRHPYSIIRR				16.2±10.8	34.5±1.5		
VEGF-C: vascular endothelial growth factor C, ligand of VEGFR2 and VEGFR3 (protein, UniProt P49767 112-227, looked up) Vascular endothelial growth …: AHYNTEILKSIDNEWRKTQCMPREVCIDVGKEFGVATNTFFKPPCVSVYRCGGCCNSEGLQCMNTSTSYLSKTLFEITVPLSQGPKPVTISFANHTSCRCMSKLDVYRQVHSIIRR				13.4±8.7	5.9±5.0		
FGF7: Recombinant FGF7 from Sigma (protein, UniProt P21781 32-194, looked up) Fibroblast growth factor 7: CNDMTPEQMATNVNCSSPERHTRSYDYMEGGDIRVRRLFCRTQWYLRIDKRGKVKGTQEMKNNYNIMEIRTVAVGIVAIKGVESEFYLAMNKEGKLYAKKECNEDCNFKELILENHYNTYASAKWTHNGGEMFVALNQKGIPVRGKKTKKEQKTAHFLPMAIT	14.1 ± 2.5			14.1±2.5		increase	increase in whole cell number (NBT-II cells; FGF7 alone, cells treated with 50 mM sodium chlorate): 28.4±11.8%; concentration eliciting maximal effect on cell growth (NBT-II cells; dose response, no sodium chlorate, effect constant through 100 ng/ml): 5 ng/mL; concentration at which maximal proliferative effect is achieved (NBT-II cells; in the presence of 50 mM sodium chlorate): 10 ng/mL; reduction of phosphorylation of Akt1/2/3 (Thr 308) [1]: ~20%
